From publication PMC6713233 (Toxicology in vitro : an international journal published in …, 2019)
“And” between values parts separate entries of the source, which are not always exact repeats. Identical values can stand only once. Like-named read-outs stand apart in the source and are kept apart here.

Columns and labels:
recombinant human AChE [1] = biological target: T1, recombinant human AChE (Homo sapiens, UniProt P22303); assay: biochemical; assay type: biochemical; details: for Emax: read-out: efficacy (%), Colorimetric
T1 sequence (P22303 32-614): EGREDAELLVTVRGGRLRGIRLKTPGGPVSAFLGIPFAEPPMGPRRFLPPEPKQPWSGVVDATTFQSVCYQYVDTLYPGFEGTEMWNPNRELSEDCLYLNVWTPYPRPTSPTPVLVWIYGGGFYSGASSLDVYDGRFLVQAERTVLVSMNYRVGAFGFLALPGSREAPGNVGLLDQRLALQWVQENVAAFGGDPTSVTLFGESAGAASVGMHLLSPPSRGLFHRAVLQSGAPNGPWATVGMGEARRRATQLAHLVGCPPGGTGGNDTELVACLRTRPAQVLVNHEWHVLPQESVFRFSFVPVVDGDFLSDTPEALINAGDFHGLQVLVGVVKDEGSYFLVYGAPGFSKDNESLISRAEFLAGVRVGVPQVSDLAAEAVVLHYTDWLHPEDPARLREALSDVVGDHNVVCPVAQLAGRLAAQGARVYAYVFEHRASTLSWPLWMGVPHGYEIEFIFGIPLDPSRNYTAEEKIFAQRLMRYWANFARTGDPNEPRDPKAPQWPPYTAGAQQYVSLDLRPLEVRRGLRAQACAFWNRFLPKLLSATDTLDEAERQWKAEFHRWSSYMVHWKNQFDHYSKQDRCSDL

recombinant human AChE [2] = biological target: T1, recombinant human AChE; assay: biochemical; assay type: biochemical; details: for Emax: read-out: efficacy (%), Fluorescence
recombinant human AChE [3] = biological target: T1, recombinant human AChE; assay: biochemical
recombinant human AChE [4] = biological target: T1, recombinant human AChE; assay: biochemical; assay type: biochemical; details: for Emax: read-out: efficacy (%), Fluorescence, +Rat MS
recombinant human AChE [5] = biological target: T1, recombinant human AChE; assay type: biochemical
recombinant human AChE [6] = biological target: T1, recombinant human AChE; assay: biochemical; assay type: biochemical; details: for Emax: read-out: efficacy (%), Colorimetric, +Rat MS
cholinesterase = details: following exposure; rats, mice, birds, fish, and farm animals; ref International Programme on Chemical Safety, 1989; cited from earlier work
AChE = details: following exposure; ref International Programme on Chemical Safety, 1989; cited from earlier work
[7] = IC50 (μM), Colorimetric, +Human MS

| Compound | IC50 (μM), Colorimetric (recombinant human AChE [1]) | Emax (recombinant human AChE [4]) | Emax (recombinant human AChE [1]) | Emax (recombinant human AChE [6]) | Emax (recombinant human AChE [2]) | also measured |
| --- | --- | --- | --- | --- | --- | --- |
| COP(=O)(NC(C)=O)SC (stereo not shown) [Acephat] | Inactive | – | – | – | – | IC50 (μM), Fluorescence (recombinant human AChE [2]): Inactive |
| CCOP(=S)(OCC)OC(Cl)C(Cl)(Cl)Cl (stereo not shown) [Chlorethoxyfos] | – | 100% | 46.3% | 105% | 99.2% | efficacy (%), Colorimetric, +Human MS (recombinant human AChE [3]): 10.88±0.00 (−102.91±1.64) %; IC50 (recombinant human AChE [3]; [7]): 10.9 µM; efficacy (%), Fluorescence, +Human MS (recombinant human AChE [5]): 31.57±8.80 (−99.07±7.79) % |
| CCOP(=S)(OCC)Oc1nc(Cl)c(Cl)cc1Cl [Chlorpyrifos] | Inactive | 89.8% | – | 98.8% | 100% | efficacy (%), Colorimetric, +Human MS (recombinant human AChE [3]): 1.71±0.47 (−93.65±1.00) %; inhibition of AChE activity (recombinant human AChE [3]): did not inhibit AChE activity; IC50 (recombinant human AChE [3]; [7]): 1.71 µM; IC50 (recombinant human AChE [3]; IC50, inhibition of AChE): 1.31 µM and 0.78 µM and 0.8 µM; efficacy (%), Fluorescence, +Human MS (recombinant human AChE [5]): 1.22±0.00 (−102.89±2.97) % |
| CCOP(=S)(OCC)Oc1ccc2c(C)c(Cl)c(=O)oc2c1 [Coumaphos] | Inactive | 95% | – | 96.5% | 83.3% | efficacy (%), Colorimetric, +Human MS (recombinant human AChE [3]): 8.06±1.94 (−98.15±5.15) %; IC50 (recombinant human AChE [3]; [7]): 8.06 µM; efficacy (%), Fluorescence, +Human MS (recombinant human AChE [5]): 12.95±1.05 (−67.18±4.87) % |
| CCOP(=S)(OCC)Oc1cc(C)nc(C(C)C)n1 [Diazinon] | – | – | 102% | 73.1% | 96.3% | IC50 (μM), Colorimetric, +Human MS (recombinant human AChE [3]): Inactive; IC50 (μM), Fluorescence, +Rat MS (recombinant human AChE [4]): Inactive; efficacy (%), Fluorescence, +Human MS (recombinant human AChE [5]): 113.22±7.66 (−71.22±6.26) % |
| CCOP(=O)(OCC)Oc1cc(C)nc(C(C)C)n1 [Diazoxon] | – | – | 95.2% | – | 77.7% | IC50 (recombinant human AChE [1]): 1.33 µM |
| COP(=O)(OC)OC=C(Cl)Cl [Dichlorvos] | – | – | 34.9% | – | 76.8% | – |
| COP(=O)(OC)O/C(C)=C/C(=O)N(C)C [Dicrotophos] | – | – | 32.5% | – | 82.7% | – |
| CNC(=O)CSP(=S)(OC)OC [Dimethoate] | Inactive | – | – | – | – | IC50 (μM), Colorimetric, +Human MS (recombinant human AChE [3]): Inactive; IC50 (μM), Fluorescence, +Rat MS (recombinant human AChE [4]): Inactive; cholinesterase activity in animals (cholinesterase): cholinesterase activity was inhibited; IC50 (μM), Fluorescence, +Human MS (recombinant human AChE [5]): Inactive; IC50 (μM), Colorimetric, +Rat MS (recombinant human AChE [6]): Inactive; IC50 (μM), Fluorescence (recombinant human AChE [2]): Inactive; AChE inhibition in human volunteers (AChE): no AChE inhibition was observed |
| CCCSP(=O)(OCC)SCCC [Ethoprop] | – | – | 43.4% | – | – | – |
| CCOP(=O)(SC(C)CC)N1CCSC1=O (stereo not shown) [Fosthiazate] | Inactive | – | – | – | – | inhibitory effect on AChE activity (in words) (recombinant human AChE [1]): did not show inhibition effects; IC50 (μM), Fluorescence (recombinant human AChE [2]): Inactive; inhibitory effect on AChE activity (in words) (recombinant human AChE [2]): did not show inhibition effects |
| CCOC(=O)CC(SP(=O)(OC)OC)C(=O)OCC (stereo not shown) [Malaoxon] | – | – | 91.1% | – | 95.2% | – |
| CCOC(=O)CC(SP(=S)(OC)OC)C(=O)OCC (stereo not shown) [Malathion] | Inactive | – | – | 59.4% | 77% | IC50 (μM), Colorimetric, +Human MS (recombinant human AChE [3]): Inactive; IC50 (μM), Fluorescence, +Rat MS (recombinant human AChE [4]): Inactive; IC50 (μM), Fluorescence, +Human MS (recombinant human AChE [5]): Inactive |
| COP(N)(=O)SC (stereo not shown) [Methamidophos] | – | – | 38.7% | – | 103% | – |
| COP(=O)(OC)OC(Br)C(Cl)(Cl)Br (stereo not shown) [Naled] | – | – | 46.5% | – | – | IC50 (recombinant human AChE [1]): 61.3 µM; IC50 (μM), Fluorescence (recombinant human AChE [2]): Inactive |
| CNC(=O)CSP(=O)(OC)OC [Omethoate] | Inactive | – | – | – | 46.3% | IC50 (recombinant human AChE [2]): 68.9 µM |
| CCOP(=S)(OCC)SCSCC [Phorate] | Inactive | 72% | – | 96.3% | 44.4% | IC50 (μM), Colorimetric, +Human MS (recombinant human AChE [3]): Inactive; inhibitory effect on AChE activity (in words) (recombinant human AChE [3]): did not show inhibitory effects; IC50 (μM), Fluorescence, +Human MS (recombinant human AChE [5]): Inactive |
| COP(=S)(OC)SCN1C(=O)c2ccccc2C1=O [Phosmet] | Inactive | 43.5% | – | – | 65.3% | IC50 (μM), Colorimetric, +Human MS (recombinant human AChE [3]): Inactive; IC50 (μM), Fluorescence, +Human MS (recombinant human AChE [5]): Inactive; IC50 (μM), Colorimetric, +Rat MS (recombinant human AChE [6]): Inactive |
| CCN(CC)c1nc(C)cc(OP(=S)(OC)OC)n1 [Pirimiphos-methyl] | Inactive | 42% | – | – | – | IC50 (μM), Colorimetric, +Human MS (recombinant human AChE [3]): Inactive; IC50 (recombinant human AChE [4]): 41.7 µM; IC50 (μM), Fluorescence, +Human MS (recombinant human AChE [5]): Inactive; IC50 (μM), Colorimetric, +Rat MS (recombinant human AChE [6]): Inactive; IC50 (μM), Fluorescence (recombinant human AChE [2]): Inactive |
| CCCSP(=O)(OCC)Oc1ccc(Br)cc1Cl (stereo not shown) [Profenofos] | – | – | 83.2% | – | 93.7% | – |
| CCOP(=S)(Oc1cnc(C(C)(C)C)nc1)OC(C)C (stereo not shown) [Tebupirimfos] | – | 91% | 53% | 100% | 90.4% | efficacy (%), Colorimetric, +Human MS (recombinant human AChE [3]): 14.39±2.31 (−95.21±2.02) %; IC50 (recombinant human AChE [3]; [7]): 14.4 µM; efficacy (%), Fluorescence, +Human MS (recombinant human AChE [5]): 48.81±5.61 (−70.67±3.28) % |
| CCOP(=S)(OCC)SCSC(C)(C)C [Terbufos] | Inactive | 85.3% | – | 95.7% | – | efficacy (%), Colorimetric, +Human MS (recombinant human AChE [3]): 31.74±5.73 (−57.67±2.16) %; IC50 (recombinant human AChE [3]; [7]): 31.7 µM; IC50 (μM), Fluorescence, +Human MS (recombinant human AChE [5]): Inactive; IC50 (μM), Fluorescence (recombinant human AChE [2]): Inactive |
| CCCCSP(=O)(SCCCC)SCCCC [Tribufos] | Inactive | – | – | – | 60.8% | – |
| COP(=O)(OC)C(O)C(Cl)(Cl)Cl (stereo not shown) [Trichlorfon] | – | – | 30% | – | 91.5% | – |
| COP(=O)(OC)O/C(=C\Cl)c1cc(Cl)c(Cl)cc1Cl [Z-Tetrachlorvinphos] | Inactive | – | – | – | 75.7% | – |
